One test deals with PI 3-kinase. Description: PI 3-kinase activity in anti-p85 immunoprecipitate and phospho-Akt Western blot, HLMVEC. As to conditions: 1 μM. It is filed as cell-based, human. How it is done: HLMVECs were cultured on 100 mm dishes. Cells were serum starved for 24 h before treating with 1 μM of CGS-21680 (Adenosine A2A receptor agonist) or the diluent control. Following treatment, lysates were prepared and −500 μg of protein was incubated with 20 μl of anti-p85-conjugated agarose (200 μg anti p85/200 μl agarose) for 2 h, after which the complex was precipitated. PI3-kinase activity was measured in the immunoprecipitate.
On the technique in general: Immunoblotting shows a protein as a band on a membrane.

Test [1] concerns HLMVEC. Description: [3H]-thymidine incorporation proliferation assay in HLMVEC. As to conditions: serum-starved, varying concentrations, 24 h. The format is cell-based, human. On the procedure:
Proliferation of HLMVEC was measured using [^3H]-thymidine incorporation. About 20,000 cells were plated in each well of a 24-well plate in endothelial cell complete medium. After 24 h, cells were washed once with HBSS and serum-starved in EBM-2 medium containing 1% FBS, hydrocortisone, ascorbic acid and GA-1000. After 24 h, cells were incubated with [^3H] thymidine (1 μCi/well) in the presence or absence of the adenosine A2A receptor agonist, CGS-21680, at varying concentrations for an additional 24 h. Subsequently, cells were washed twice with ice-cold PBS, precipitated with 0.1 N perchloric acid, and solubilized with 0.01 N NaOH containing 0.1% SDS prior to scintillation counting. Similarly, proliferation was also measured in cells transduced with Ad.A2A or Ad.LacZ at a multiplicity of infection of 10 pfu/cell.

The test system of the next test is MB114 cells. Description: Tube formation of MB114 cells on collagen gel. The format is cell-based, murine. As to conditions: 5 days. On the procedure: MB114 cells (a microvascular endothelial cell line) were plated on collagen gel in presence of absence of the A2A receptor agonist CGS-21680 at a density of 80000 cells/well using a 24 well plate. After incubation for 5 days, photos from each well were taken randomly.

Test [2] deals with HLMVEC. Briefly: Matrigel tube formation (branching) assay in HLMVEC. It is filed as cell-based, human. On the procedure: Angiogenesis in HLMVEC was assessed using the Matrigel tube formation assay. Growth factor-reduced Matrigel matrix was coated onto 12-well plates and allowed to solidify at 37° C. for 30 min. HLMVEC's were then trypsinized and plated onto the Matrigel in the absence of growth factors or serum and incubated at 37° C. in a CO2 incubator. The A2A receptor agonist, CGS-21680, or the diluent control was included both in the Matrigel matrix and the overlying medium. Four hours after plating of cells, three randomly chosen fields from each well were photographed. Branch points were counted and plotted.

The test system of test [3] is adenosine A2A receptor mRNA. Briefly: Northern blot of adenosine A2A receptor mRNA in human endothelial cells (HLMVEC, HCAEC). It is filed as cell-based. How it is done:
To assess the role of adenosine receptors in hypoxia, primary HLMVEC were exposed to air or hypoxia. For detecting mRNA, twenty-four hours post-transduction or treatment, cells were washed twice with Hank's balanced salt solution (HBSS) and harvested in GITC. RNA was purified using the CsCl method as described earlier (Riddle et al., Am J Physiol Lung Cell Mol Physiol 278, L407 (2000). 15 μg total RNA were resolved on 1% formaldehyde-agarose gels and transferred to nylon membranes. Probes used for northern blot were derived from human A2A cDNA and human A2B cDNA kindly provided by Dr. Marlene Jacobson, Merck Research Labs, West Point, Pa. The VEGF cDNA was obtained from the Harvard Proteomic Institute. The cDNA probes were labeled with [^32P]α-dCTP (ICN, Irvine, Calif.) by random priming and hybridized with the membrane for 18 hrs at 42° C. Membranes were then washed and autoradiographed. For loading controls, membranes were stripped of radioactive probe in a 2% glyceraldehyde solution at 80° C. and rehybridized with an end-labeled 28S rRNA oligonucleotide (Ambion, Austin, Tex.). The intensity of the radiolabeled bands was measured using a PhosphorImager running ImageQuant software (Molecular Dynamics, Sunnyvale, Calif.). The same Northern Blot procedure was used in subsequent examples, unless specifically noted otherwise. Protein expression was detected using standard Western Blot methods described in Ahmad, Free Radic Biol Med. 40(7):1108(2006).

The next test concerns A2A receptor mRNA. Description: A2A receptor mRNA expression in mouse derived endothelial cells SVEC and MB114. It is filed as cell-based. How it is done:
Primary human lung microvascular endothelial cells (HLMVEC), primary human coronary artery endothelial cells (HCAEC), primary pulmonary artery endothelial cells (HPAEC) and endothelial cell growth medium were obtained from Cambrex (Walkersville, Md.). Dimethyloxlylglycine (DMOG) was obtained from Frontier Scientific, Inc (Logan, Utah). HLMVEC and HCAEC were cultured in endothelial cell basal medium (EBM-2) supplemented with VEGF, human FGF, human EGF, hydrocortisone, ascorbic acid, insulin-like growth factor-1, GA-1000 (gentamycin/amphotericin-B), 5% fetal bovine serum as per the supplier's protocol. Murine brain microvascular endothelial cells (MB114) and SV-40 transformed mouse endothelial cells (SVEC) were cultured in DMEM supplemented with 10% FBS, penicillin and streptomycin. The same culture conditions were used in subsequent examples, unless specifically noted otherwise.
To assess the role of adenosine receptors in hypoxia, primary HLMVEC were exposed to air or hypoxia. […] The intensity of the radiolabeled bands was measured using a PhosphorImager running ImageQuant software (Molecular Dynamics, Sunnyvale, Calif.). […] Protein expression was detected using standard Western Blot methods described in Ahmad, Free Radic Biol Med. 40(7):1108(2006).

The mark [4] stands for this setting: HLMVEC (donors) and HCAEC, Northern blot.

Read-outs that look alike come from different tables or passages of the source.

`CCNC(=O)[C@H]1O[C@@H](n2cnc3c(N)nc(NCCc4ccc(CCC(=O)O)cc4)nc32)[C@H](O)[C@@H]1O` [CGS-21680]: the “expression of phosphorylated Akt (Western blot)” value in the test on PI 3-kinase was “increases expression of phosphorylated Akt”. Further, the “PI3-kinase activity (phosphorylation of phosphoinositides, PIP3)” value in the test on PI 3-kinase (serum starved 24 h) is “increased PI3-kinase activity”. The “cellular proliferation as assessed by 3[H]thymidine incorporation” value with HLMVEC [1] is given as “increased cellular proliferation in a dose-dependent manner”. Also, the tube formation entry in the test with MB114 cells was “promotes tube formation in a dose dependent manner”. The “cell sprouting / formation of branches relative to control cells” value in the test on HLMVEC [2] (Matrigel, 4 h) is listed as “increased cell sprouting resulting in formation of branches”. For the same molecule, the “increase in branching compared to the diluent control” value in the test on HLMVEC [2] (Matrigel-matrix based assay, branch points 4 h after plating) is given as 37%.

In the case of `[Cl-].[Cl-].[Co+2]` [CoCl2], the “adenosine A2A receptor steady-state mRNA levels” value in test [3] is “increases adenosine A2A receptor steady-state mRNA levels”.

For `CC(=O)N(O)CCCCCNC(=O)CCC(=O)N(O)CCCCCNC(=O)CCC(=O)N(O)CCCCCN` [DFO], the “adenosine A2A receptor steady-state mRNA levels” value in test [3] (setting [4]) is reported as “increases adenosine A2A receptor steady-state mRNA levels”.

For `COC(=O)CNC(=O)C(=O)OC` [DMOG, Dimethyloxlylglycine], the “adenosine A2A receptor steady-state mRNA levels” value in test [3] (setting [4]) is “increases adenosine A2A receptor steady-state mRNA levels”. Further, the “expression of A2A receptor mRNA levels” value with A2A receptor mRNA was “neither hypoxia nor HIF stabilization by DMOG altered the expression of A2A receptor mRNA levels”.

The record behind these values is US20190142832A1, “Marker for Cancer Prognosis and Methods Related Thereto” (National Jewish Health, priority 2007, published 2019).
